# Laboratory results published in patent publication US20170298051A1, “ACTIVATOR OF ADIPONECTIN RECEPTOR” (THE UNIVERSITY OF TOKYO, priority 2013, published 2017).
# pKd: −log10 of the molar value.
# Columns and labels:
# mice fed with a HF diet = assay: Treadmill exercise endurance in mice fed a HF diet; type: in vivo
# Method: The treadmill exercise test regimen was 15 m/min for 20 min. Exercise endurance was assessed by dividing 20 min by the number of times a mouse was unable to avoid electrical shocks.
# mice on a HF diet = assay: Hyperinsulinemic euglycemic clamp study in mice on a HF diet; type: in vivo
# Method: Clamp studies were carried out as described previously^a,b, with slight modifications. In brief, 2-3 days before the study, an infusion catheter was inserted into the right jugular vein under general anesthesia with sodium pentobarbital. Studies were performed on mice under conscious and unstressed conditions after a 6 h fast. A primed continuous infusion of insulin (Humulin R, Lilly) was given (10.0 milliunits/kg/min),and the blood glucose concentration, monitored every 5 min, was maintained at 120 mg/dl by administration of glucose (5 g of glucose per 10 ml enriched to 20% with [6,6-^2H2] glucose (Sigma)) for 120 min. Blood was sampled via tail tip bleeds at 90, 105, and 120 min for determination of the rate of glucose disappearance (Rd). Rd was calculated according to nonsteady-state equations, and endogenous glucose production (EGP) was calculated as the difference between Rd and exogenous glucose infusion rates^a,b,c.
# [1] = test system: HF diet-induced obese mice; assay: Oral glucose tolerance test and insulin tolerance in HF diet-induced obese mice; type: in vivo; conditions: WT mice on HF diet, oral 50 mg/kg, 10 days
# Method: The original Adipor1^+/−/Adipor2^+/− mice (C57BL/6 and 129/Sv mixed background)^a were backcrossed with C57B1/6 mice more than seven times. All experiments in this study were conducted on male littermates.
# Mice were 6-10 week of age at the time of the experiment. They were housed in cages and maintained on a 12 hr light-dark cycle.
# Plasma glucose levels were determined by using a glucose B-test (Wako Pure Chemical Industries). Plasma insulin was measured with an insulin immunoassay (Shibayagi). Plasma NEFAs (Wako Pure Chemical Industries) were assayed by enzymatic methods.
# The oral glucose tolerance test (OGTT) and insulin tolerance test (ITT) were conducted as previously described^a,b with slight modifications. The areas of the glucose and insulin curves were calculated by multiplying the cumulative mean height of the glucose values (1 mg/ml=1 cm) and insulin values (1 ng/ml=1 cm), respectively, by time (60 min=1 cm)^c,a. The insulin resistance index was calculated from the product of the areas of glucose and insulin×10^−2 in the glucose tolerance test. The results are expressed as the percentage of the value respect to control littermates.
# Human AdipoR2 = target: T1, Human AdipoR2 (Homo sapiens, UniProt Q86V24); assay: Surface plasmon resonance, affinity for AdipoR2; type: binding; conditions: SPR
# T1 construct: made in house
# T1 sequence (Q86V24 1-386): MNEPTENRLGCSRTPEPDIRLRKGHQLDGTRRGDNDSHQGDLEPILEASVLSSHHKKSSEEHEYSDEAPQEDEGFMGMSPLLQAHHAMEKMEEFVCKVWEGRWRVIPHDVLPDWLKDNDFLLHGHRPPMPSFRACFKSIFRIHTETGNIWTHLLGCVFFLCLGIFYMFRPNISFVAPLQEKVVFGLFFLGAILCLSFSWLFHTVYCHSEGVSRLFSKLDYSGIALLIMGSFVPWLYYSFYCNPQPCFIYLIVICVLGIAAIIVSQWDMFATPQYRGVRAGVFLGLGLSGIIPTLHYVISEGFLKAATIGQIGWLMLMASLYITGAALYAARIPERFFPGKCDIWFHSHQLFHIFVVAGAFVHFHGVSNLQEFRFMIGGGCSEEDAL
# Method: Surface plasmon resonance measurements were performed by a BIAcore X100 system (GE Healthcare) and sensor chip SA (GE Healthcare). Human AdipoR1 and AdipoR2 were expressed with the baculovirus system, and purified to homogeneity. The AdipoR1 and AdipoR2 samples were then reconstituted into egg-phosphatidylcholine liposomes containing biotinyl phosphatidylethanolamine (Avanti), as previously reported^a. Mouse full-length adiponectin was generated as previously described^b,c,d,e. AdipoR1 and AdipoR2 were immobilized onto a sensor chip SA to levels of 2,500-3,000 response units (RU) using standard immobilization protocols (GE Healthcare).
# Experiments were performed at 25° C. using AdipoRon (0.49-31.25 μM) and adiponectin (1.5 ng-3.75 μg) and using electrophoresis buffer (20 mM Hepes (pH 7.4), 200 mM NaCl, 10% glycerol, […] surfactant P20). Biacore X100 Evaluation Software was used to determine the equilibrium dissociation constant (KD) of the compound or proteins.
# [2] = test system: white adipose tissue (WAT); assay: White adipose tissue (WAT): inflammation and macrophage markers in mice fed a HF diet; type: in vivo
# Method: Real-time PCR was carried out according to the method described previously^a,b,c. Total RNA was prepared from cells or tissues with Trizol (Invitrogen) according to the manufacturer's instructions. We used a real-time PCR method to quantify the mRNAs^19, with slight modifications.
# Skeletal muscle homogenates were extracted, and tissue triglyceride content was determined as described previously^a-c, with some modifications. To investigate whether oxidative stress was increased, we measured lipid peroxidation, a marker of oxidative injury, as represented by plasma thiobarbituric acid reactive substance (TBARS) as described previously^4. Briefly, tissue samples were homogenized in a buffer solution containing 50 mM Tris-HCl (pH 7.4) and 1.15% KCl, and then centrifuged. The supernatant was used for the assay. The levels of lipid peroxidation in tissue homogenate and plasma were measured in terms of the amount of TBARS using the LPO test (Wako Pure Chemical Industries).
# rhodopsin receptor = assay: Surface plasmon resonance, rhodopsin receptor control; type: binding; conditions: SPR
# [3] = Adipor1/r2 double-knockout mice fed with a HF diet
# [4] = Adipor1/r2 double-knockout mice
# [5] = WT mice on HF diet, 10 days of administration
smiles,measurement,setting,value
"O=C(COc1ccc(C(=O)c2ccccc2)cc1)NC1CCN(Cc2ccccc2)CC1 [Compound 73, 2-(4-benzoyl-phenoxy)-N-(1-benzylpiperidin-4-yl)acetamide]",exercise endurance,mice fed with a HF diet; [3],but not in Adipor1/r2 double-knockout mice
same,exercise endurance,mice fed with a HF diet; WT mice fed with a HF diet,significantly increased exercise endurance
same,"GIR, EGP and Rd",mice on a HF diet; [4],None of these parameters were improved
same,endogenous glucose production (EGP),mice on a HF diet; [5],significantly suppressed
same,glucose disposal rate (Rd),mice on a HF diet; [5],significantly increased
same,glucose infusion rate (GIR),mice on a HF diet; [5],significantly increased
same,"fasting plasma glucose and insulin levels, glucose and insulin responses during OGTT",[1],significant decrease
same,insulin sensitivity,[1],improved insulin sensitivity
same,Rmax,Human AdipoR2,8.6 RU
same,pKd,"Human AdipoR2; 25° C., read-out: equilibrium dissociation constant (KD)",5.51
same,changes of macrophage markers in the WAT,[2]; [4],these changes were not observed
same,expression levels of genes encoding pro-inflammatory cytokines in the WAT,[2]; [3],such effect was not observed
same,"expression levels of genes encoding pro-inflammatory cytokines (Tnf, Il6, Ccl2) in the WAT",[2]; WT mice fed with a HF diet,reduced the expression levels
same,"levels of macrophage markers such as TBARS and F4/80 (Emr1), M1 marker CD11c (Itgax) in the WAT",[2]; WT mice fed with a HF diet,reduced the levels
same,levels of markers for alternatively activated M2 macrophages such as CD206 (Mrc1) in the WAT,[2]; WT mice fed with a HF diet,not affect the levels
same,reaction with rhodopsin receptor (control),rhodopsin receptor,does not react a rhodopsin receptor at all
